One test has as its system SARS-CoV. To be noted: background, cited sources; cited from earlier work.
The next test concerns SARS CoV. The class given is cell-based. As to conditions: for mean number of plaques: 3 days incubation at 37° C., vero C1008 cells; for plaques as % of virus control: virus control = 100%.
In a further test the test system is RSV S2. The test is classed as cell-based. To be noted: 100 μg/ml.

Molecules are shown by their SMILES. Like-named read-outs stand apart in the source and are kept apart here.

With `CCOC(=O)/C=C/[C@H](C[C@@H]1CCNC1=O)NC(=O)[C@@H](CC(=O)[C@@H](NC(=O)c1cc(C)on1)C(C)C)Cc1ccc(F)cc1` [AG7088], the “activity against SARS virus (reported in literature/news)” value with SARS-CoV is reported as “failed to inhibit virus”.

In the case of `Cc1cccc(C)c1OCC(=O)N[C@@H](Cc1ccccc1)[C@@H](O)C[C@H](Cc1ccccc1)NC(=O)[C@H](C(C)C)N1CCCNC1=O` [Lopinavir], the “activity against SARS virus (reported in literature/news)” value with SARS-CoV was “partially active”.

In the case of `Cc1c(O)cccc1C(=O)N[C@@H](CSc1ccccc1)[C@H](O)CN1C[C@H]2CCCC[C@H]2C[C@H]1C(=O)NC(C)(C)C` [Nelfinavir], the “activity against SARS virus (reported in literature/news)” value in the test with SARS-CoV is given as “partially active”.

For the compound `NC(=O)c1ncn([C@@H]2O[C@H](CO)[C@@H](O)[C@H]2O)n1` [Ribavirin], in the test on SARS CoV (Ribavirin 10 μg/ml), the “mean number of plaques” value is given as “mean 114.75” and the “plaques as % of virus control” value is listed as “(97.5%)”. Further, in the test on SARS CoV (Ribavirin 100 μg/ml), the “mean number of plaques” value is given as “mean 87.25” and the “plaques as % of virus control” value is listed as “(74.1%)”. In the test on SARS CoV (higher concentrations (Ribavirin 100 μg/ml, PYN5C 200 μg/ml)), the “plaque size compared with controls” value is listed as “smaller than for the controls”. Besides, the “protection of the cells against RSV” value in the test with RSV S2 was “did not protect”. Moreover, the “activity against SARS virus (reported in literature/news)” value in the test on SARS-CoV was “appear to be efficacious”.

`CC1(C)[C@@H](O[C@H]2O[C@H](C(=O)O)[C@@H](O)[C@H](O)[C@H]2O[C@@H]2O[C@H](C(=O)O)[C@@H](O)[C@H](O)[C@H]2O)CC[C@]2(C)[C@H]3C(=O)C=C4[C@@H]5C[C@@](C)(C(=O)O)CC[C@]5(C)CC[C@@]4(C)[C@]3(C)CC[C@@H]12` [glycyrrhizin]: in the test with SARS-CoV, the “activity against SARS virus (reported in literature/news)” value is reported as “appear to be efficacious”.

These data come from patent US20080038382A1 (priority 2004, published 2008).
